Measured values from the NIST ThermoML archive (doi:10.1021/je100220c).
Numbers after ± are expanded uncertainties.

Experiment: excess molar enthalpy (molar enthalpy of mixing); xn = mol fraction of the nth substance listed
Details: Liquid, Flow calorimetry

CC(C)=O [acetone] + O=C=O
excess molar enthalpy [kJ/mol]
Details	313.15 K	323.15 K	333.15 K
9000 kPa, x2 = 0.095	-0.454 ± 0.015	–	–
9000 kPa, x2 = 0.102	–	-0.728 ± 0.022	-0.753 ± 0.022
9000 kPa, x2 = 0.158	–	-1.1 ± 0.027	–
9000 kPa, x2 = 0.18	-0.935 ± 0.023	–	-1.31 ± 0.032
9000 kPa, x2 = 0.246	-1.2 ± 0.027	-1.7 ± 0.039	-1.78 ± 0.04
9000 kPa, x2 = 0.319	–	-2.14 ± 0.047	–
9000 kPa, x2 = 0.337	-1.49 ± 0.033	–	-2.39 ± 0.053
9000 kPa, x2 = 0.424	–	-2.69 ± 0.059	-2.94 ± 0.064
9000 kPa, x2 = 0.432	-1.86 ± 0.041	–	–
9000 kPa, x2 = 0.507	-2.02 ± 0.044	-3.13 ± 0.068	-3.35 ± 0.072
9000 kPa, x2 = 0.586	-2.23 ± 0.048	-3.49 ± 0.075	–
9000 kPa, x2 = 0.625	–	–	-4.01 ± 0.086
9000 kPa, x2 = 0.662	-2.29 ± 0.049	–	–
9000 kPa, x2 = 0.699	–	-4 ± 0.087	-4.27 ± 0.091
9000 kPa, x2 = 0.771	-2.37 ± 0.051	-4.18 ± 0.09	-4.37 ± 0.093
9000 kPa, x2 = 0.805	–	-4.17 ± 0.09	–
9000 kPa, x2 = 0.807	–	–	-4.2 ± 0.097
9000 kPa, x2 = 0.84	-2.23 ± 0.049	-4.05 ± 0.087	–
9000 kPa, x2 = 0.9	-2.04 ± 0.045	–	–
9000 kPa, x2 = 0.906	–	-3.43 ± 0.081	-2.03 ± 0.063
9000 kPa, x2 = 0.938	-1.74 ± 0.045	-2.61 ± 0.092	-1.21 ± 0.058
9000 kPa, x2 = 0.969	-1.2 ± 0.043	-1.13 ± 0.098	–
12000 kPa, x2 = 0.108	-0.323 ± 0.009	-0.403 ± 0.01	–
12000 kPa, x2 = 0.189	-0.574 ± 0.014	–	–
12000 kPa, x2 = 0.209	–	-0.761 ± 0.018	–
12000 kPa, x2 = 0.258	-0.732 ± 0.017	–	–
12000 kPa, x2 = 0.305	–	-1.06 ± 0.024	–
12000 kPa, x2 = 0.332	-0.922 ± 0.021	–	–
12000 kPa, x2 = 0.351	–	-1.21 ± 0.027	–
12000 kPa, x2 = 0.395	-1.05 ± 0.023	–	–
12000 kPa, x2 = 0.438	–	-1.47 ± 0.032	–
12000 kPa, x2 = 0.464	-1.17 ± 0.025	–	–
12000 kPa, x2 = 0.562	-1.28 ± 0.05	-1.69 ± 0.037	–
12000 kPa, x2 = 0.646	–	-1.77 ± 0.038	–
12000 kPa, x2 = 0.675	-1.32 ± 0.029	–	–
12000 kPa, x2 = 0.747	–	-1.8 ± 0.04	–
12000 kPa, x2 = 0.781	-1.2 ± 0.026	–	–
12000 kPa, x2 = 0.801	–	-1.72 ± 0.039	–
12000 kPa, x2 = 0.847	-1.02 ± 0.024	–	–
12000 kPa, x2 = 0.879	–	-1.39 ± 0.033	–
12000 kPa, x2 = 0.911	-0.736 ± 0.021	–	–
12000 kPa, x2 = 0.941	–	-0.933 ± 0.025	–
12000 kPa, x2 = 0.971	-0.256 ± 0.009	-0.553 ± 0.023	–
15000 kPa, x2 = 0.111	-0.277 ± 0.007	-0.308 ± 0.008	-0.371 ± 0.01
15000 kPa, x2 = 0.194	-0.457 ± 0.011	-0.531 ± 0.013	–
15000 kPa, x2 = 0.215	–	–	-0.677 ± 0.016
15000 kPa, x2 = 0.264	-0.621 ± 0.014	-0.714 ± 0.016	–
15000 kPa, x2 = 0.312	–	–	-0.941 ± 0.021
15000 kPa, x2 = 0.34	-0.76 ± 0.017	–	–
15000 kPa, x2 = 0.359	–	-0.905 ± 0.02	–
15000 kPa, x2 = 0.404	–	–	-1.19 ± 0.027
15000 kPa, x2 = 0.456	-0.906 ± 0.02	–	–
15000 kPa, x2 = 0.473	–	-1.12 ± 0.024	–
15000 kPa, x2 = 0.489	–	–	-1.36 ± 0.03
15000 kPa, x2 = 0.53	-1 ± 0.022	-1.19 ± 0.026	–
15000 kPa, x2 = 0.586	-1.02 ± 0.022	–	–
15000 kPa, x2 = 0.609	–	-1.24 ± 0.027	-1.52 ± 0.034
15000 kPa, x2 = 0.647	-1.02 ± 0.022	–	–
15000 kPa, x2 = 0.683	–	-1.24 ± 0.027	-1.56 ± 0.035
15000 kPa, x2 = 0.719	-0.98 ± 0.021	–	–
15000 kPa, x2 = 0.753	–	–	-1.5 ± 0.034
15000 kPa, x2 = 0.787	-0.887 ± 0.02	-1.12 ± 0.024	–
15000 kPa, x2 = 0.82	–	–	-1.3 ± 0.03
15000 kPa, x2 = 0.852	-0.724 ± 0.017	-0.932 ± 0.021	–
15000 kPa, x2 = 0.883	–	–	-1.04 ± 0.024
15000 kPa, x2 = 0.913	-0.499 ± 0.013	-0.651 ± 0.016	–
15000 kPa, x2 = 0.915	–	–	-0.844 ± 0.023
15000 kPa, x2 = 0.943	-0.364 ± 0.013	-0.49 ± 0.017	-0.653 ± 0.023
15000 kPa, x2 = 0.972	-0.191 ± 0.013	-0.265 ± 0.014	-0.342 ± 0.023
18000 kPa, x2 = 0.114	-0.264 ± 0.007	-0.271 ± 0.008	–
18000 kPa, x2 = 0.198	-0.417 ± 0.01	–	–
18000 kPa, x2 = 0.219	–	-0.518 ± 0.012	–
18000 kPa, x2 = 0.269	-0.541 ± 0.012	–	–
18000 kPa, x2 = 0.318	–	-0.729 ± 0.016	–
18000 kPa, x2 = 0.346	-0.672 ± 0.015	–	–
18000 kPa, x2 = 0.41	-0.781 ± 0.017	-0.883 ± 0.019	–
18000 kPa, x2 = 0.479	-0.846 ± 0.018	-0.974 ± 0.021	–
18000 kPa, x2 = 0.577	-0.898 ± 0.019	-1.04 ± 0.022	–
18000 kPa, x2 = 0.652	-0.919 ± 0.02	-1.02 ± 0.022	–
18000 kPa, x2 = 0.724	-0.857 ± 0.019	-0.967 ± 0.021	–
18000 kPa, x2 = 0.791	-0.722 ± 0.016	-0.857 ± 0.019	–
18000 kPa, x2 = 0.855	-0.569 ± 0.014	-0.698 ± 0.016	–
18000 kPa, x2 = 0.915	-0.383 ± 0.011	-0.453 ± 0.013	–
18000 kPa, x2 = 0.944	–	-0.324 ± 0.012	–
18000 kPa, x2 = 0.956	-0.218 ± 0.009	–	–
18000 kPa, x2 = 0.973	–	-0.186 ± 0.01	–
